Results taken from patent publication US9179694B2, “Method and composition for enhancing milk production and milk component concentrations” (PURINA ANIMAL NUTRITION LLC, priority 2003, dated 2015).
Marks after values point to notes of the source that are not given here.

Test: 4% fat-corrected milk production in sorbitol feeding trials
Assay type: in vivo, Holstein cows
From the text: To convert a particular quantity (weight) of a milk sample to the quantity (weight) of Fat-Corrected Milk, based on a correction to a concentration of four weight percent fat, based on the total weight off the Fat-Corrected Milk, the following equation is employed: 4 wt % FCM=Original Milk Weight×(0.4+(0.15×% TFOM)) where: • the term 4 wt % FCM means the calculated weight of Fat-Corrected Milk, based on a correction to a concentration of four weight percent fat, based on the total weight of the Fat-Corrected Milk, • the term Original Milk Weight means the weight of the original milk sample that is being corrected to a four weight percent fat basis, and • % TFOM is the weight % total fat in the original milk sample, based on the total weight of the original milk sample. Each cow of each of the six different trials (Control Trial #1, Control Trial #2, Pre-Partum Trial #1, Pre-Partum Trial #2, Pre/Post Trial #1, and Pre/Post Trial #2) was milked three times daily and the weight of produced milk by each cow was recorded at each milking. The milk from each cow was sampled once per week (⅓ of the sample volume from each of the three milkings occurring on the weekly milk sampling day) and was analyzed for true protein, total fat, lactose, and total solids, as detailed in the property determination and characterization techniques presented above. Additionally, samples of blood were periodically obtained from each cow during the four trials (Control Trial 2, Pre-Partum Trial #2, Pre/Post Trial #1, and Pre/Post Trial #2) encompassed in Example Two and were analyzed for non-esterified fatty acid (NEFA) content as detailed in the property determination and characterization techniques presented above. No NEFA analysis was conducted on the cows employed in Control Trial #1 or Pre-Partum Trial #1 that are the subject of Example One. Example One includes Control Trial #1 and Pre-Partum Trial #1. Both primiparious cows and multiparious cows were included in Control Trial #1 and Pre-Partum Trial #1. Five primiparious cows and fifteen multiparious cows were included in Control Trial #1; likewise, five primiparious cows and fifteen multiparious cows were included in Pre-Partum Trial #1. All cows included in Control Trial #1 and Pre-Partum Trial #1 were Holsteins. Example Two includes Control Trial #2, Pre-Partum Trial #2, Pre/Post Trial #1, and Pre/Post Trial #2. Only multiparious, Holstein cows were included in Control Trial #2, Pre-Partum Trial #1, Pre/Post Trial #1, and Pre/Post Trial #2. Eighteen multiparious cows were included in both Control Trial #2 and Pre-Partum Trial #2, while sixteen multiparious cows were included in Pre/Post Trial #1 and seventeen multiparious cows were included in Pre/Post Trial #2.

OC[C@@H](O)[C@@H](O)[C@H](O)[C@@H](O)CO [sorbitol]
Milk Production (4.0% fat basis) (Pre-Partum Trial #1 (75/0/0 g/day in wk −3..−1/+1..+4/+5..+8), multiparious cows, weeks +1 through +8): 98.6 lbs/day
Milk Production (4.0% fat basis) (Pre-Partum Trial #1 (75/0/0 g/day in wk −3..−1/+1..+4/+5..+8), primiparious cows, weeks +1 through +8): 79.3 lbs/day
4% fat-corrected milk production increase (Pre-Partum Trial #1 (75 g/day wk −3..−1 only) versus Control Trial #1, multiparious cows, weeks +1 through +8): 12.4%
increase in production of 4% fat-corrected milk (Pre-Partum Trial #1 (75 g/day wk −3..−1 only) versus Control Trial #1, primiparious cows, weeks +1 through +8): 7.6%
Milk Production (4.0% fat basis) (Pre-Partum Trial #2 (75/0/100 g/day in wk −3..−1/+1..+4/+5..+8), multiparious cows, week +1): 71.1^a lbs/day
Milk Production (4.0% fat basis) (Pre-Partum Trial #2 (75/0/100 g/day in wk −3..−1/+1..+4/+5..+8), multiparious cows, week +2): 100 lbs/day
Milk Production (4.0% fat basis) (Pre-Partum Trial #2 (75/0/100 g/day in wk −3..−1/+1..+4/+5..+8), multiparious cows, week +3): 104 lbs/day
Milk Production (4.0% fat basis) (Pre-Partum Trial #2 (75/0/100 g/day in wk −3..−1/+1..+4/+5..+8), multiparious cows, week +4): 101 lbs/day
Milk Production (4.0% fat basis) (Pre-Partum Trial #2 (75/0/100 g/day in wk −3..−1/+1..+4/+5..+8), multiparious cows, week +5): 104^ab lbs/day
Milk Production (4.0% fat basis) (Pre-Partum Trial #2 (75/0/100 g/day in wk −3..−1/+1..+4/+5..+8), multiparious cows, week +6): 102 lbs/day
Milk Production (4.0% fat basis) (Pre-Partum Trial #2 (75/0/100 g/day in wk −3..−1/+1..+4/+5..+8), multiparious cows, week +7): 102 lbs/day
Milk Production (4.0% fat basis) (Pre-Partum Trial #2 (75/0/100 g/day in wk −3..−1/+1..+4/+5..+8), multiparious cows, week +8): 99.5^ab lbs/day
Milk Production (4.0% fat basis) (Pre-Partum Trial #2 (75/0/100 g/day in wk −3..−1/+1..+4/+5..+8), multiparious cows, weeks +1 through +4): 94.4 lbs/day
Milk Production (4.0% fat basis) (Pre-Partum Trial #2 (75/0/100 g/day in wk −3..−1/+1..+4/+5..+8), multiparious cows, weeks +1 through +8): 98 lbs/day
Milk Production (4.0% fat basis) (Pre-Partum Trial #2 (75/0/100 g/day in wk −3..−1/+1..+4/+5..+8), multiparious cows, weeks +5 through +8): 102 lbs/day
Milk Production (4.0% fat basis) (Pre/Post Trial #1 (150/125/100 g/day in wk −3..−1/+1..+4/+5..+8), multiparious cows, week +1): 82.1^ab lbs/day
Milk Production (4.0% fat basis) (Pre/Post Trial #1 (150/125/100 g/day in wk −3..−1/+1..+4/+5..+8), multiparious cows, week +1, two-trial comparison with Control Trial #2 (Table 23)): 82.4 lbs/day
Milk Production (4.0% fat basis) (Pre/Post Trial #1 (150/125/100 g/day in wk −3..−1/+1..+4/+5..+8), multiparious cows, week +2): 100 lbs/day
Milk Production (4.0% fat basis) (Pre/Post Trial #1 (150/125/100 g/day in wk −3..−1/+1..+4/+5..+8), multiparious cows, week +2, two-trial comparison with Control Trial #2 (Table 23)): 99.7 lbs/day
Milk Production (4.0% fat basis) (Pre/Post Trial #1 (150/125/100 g/day in wk −3..−1/+1..+4/+5..+8), multiparious cows, week +3): 107 lbs/day
Milk Production (4.0% fat basis) (Pre/Post Trial #1 (150/125/100 g/day in wk −3..−1/+1..+4/+5..+8), multiparious cows, week +3, two-trial comparison with Control Trial #2 (Table 23)): 107 lbs/day
Milk Production (4.0% fat basis) (Pre/Post Trial #1 (150/125/100 g/day in wk −3..−1/+1..+4/+5..+8), multiparious cows, week +4): 109 lbs/day
Milk Production (4.0% fat basis) (Pre/Post Trial #1 (150/125/100 g/day in wk −3..−1/+1..+4/+5..+8), multiparious cows, week +4, two-trial comparison with Control Trial #2 (Table 23)): 109 lbs/day
Milk Production (4.0% fat basis) (Pre/Post Trial #1 (150/125/100 g/day in wk −3..−1/+1..+4/+5..+8), multiparious cows, week +5): 108^ab lbs/day
Milk Production (4.0% fat basis) (Pre/Post Trial #1 (150/125/100 g/day in wk −3..−1/+1..+4/+5..+8), multiparious cows, week +5, two-trial comparison with Control Trial #2 (Table 23)): 108 lbs/day
Milk Production (4.0% fat basis) (Pre/Post Trial #1 (150/125/100 g/day in wk −3..−1/+1..+4/+5..+8), multiparious cows, week +6): 109 lbs/day
Milk Production (4.0% fat basis) (Pre/Post Trial #1 (150/125/100 g/day in wk −3..−1/+1..+4/+5..+8), multiparious cows, week +6, two-trial comparison with Control Trial #2 (Table 23)): 109 lbs/day
Milk Production (4.0% fat basis) (Pre/Post Trial #1 (150/125/100 g/day in wk −3..−1/+1..+4/+5..+8), multiparious cows, week +7): 103 lbs/day
Milk Production (4.0% fat basis) (Pre/Post Trial #1 (150/125/100 g/day in wk −3..−1/+1..+4/+5..+8), multiparious cows, week +7, two-trial comparison with Control Trial #2 (Table 23)): 103 lbs/day
Milk Production (4.0% fat basis) (Pre/Post Trial #1 (150/125/100 g/day in wk −3..−1/+1..+4/+5..+8), multiparious cows, week +8): 108.7^b lbs/day
Milk Production (4.0% fat basis) (Pre/Post Trial #1 (150/125/100 g/day in wk −3..−1/+1..+4/+5..+8), multiparious cows, week +8, two-trial comparison with Control Trial #2 (Table 23)): 109 lbs/day
Milk Production (4.0% fat basis) (Pre/Post Trial #1 (150/125/100 g/day in wk −3..−1/+1..+4/+5..+8), multiparious cows, weeks +1 through +4): 99.5 lbs/day
Milk Production (4.0% fat basis) (Pre/Post Trial #1 (150/125/100 g/day in wk −3..−1/+1..+4/+5..+8), multiparious cows, weeks +1 through +4, two-trial comparison with Control Trial #2 (Table 23)): 99.7 lbs/day
Milk Production (4.0% fat basis) (Pre/Post Trial #1 (150/125/100 g/day in wk −3..−1/+1..+4/+5..+8), multiparious cows, weeks +1 through +8): 103 lbs/day
Milk Production (4.0% fat basis) (Pre/Post Trial #1 (150/125/100 g/day in wk −3..−1/+1..+4/+5..+8), multiparious cows, weeks +1 through +8, two-trial comparison with Control Trial #2 (Table 23)): 103 lbs/day
Milk Production (4.0% fat basis) (Pre/Post Trial #1 (150/125/100 g/day in wk −3..−1/+1..+4/+5..+8), multiparious cows, weeks +5 through +8): 107 lbs/day
Milk Production (4.0% fat basis) (Pre/Post Trial #1 (150/125/100 g/day in wk −3..−1/+1..+4/+5..+8), multiparious cows, weeks +5 through +8, two-trial comparison with Control Trial #2 (Table 23)): 107 lbs/day
greater production of 4% fat-corrected milk (Pre/Post Trial #1 (150/125/100 g/day) versus Control Trial #2, multiparious cows, week +8): 13.2%
increase in production of 4% fat-corrected milk (Pre/Post Trial #1 (150/125/100 g/day) versus Control Trial #2, multiparious cows, weeks +5 through +8 (Table 23)): 8.1%
greater rate of 4% fat-corrected milk production (Pre/Post Trial #1 (150/125/100 g/day) versus Pre/Post Trial #2 (75/75/100 g/day), multiparious cows, week +8): 15.1%
Milk Production (4.0% fat basis) (Pre/Post Trial #2 (75/75/100 g/day in wk −3..−1/+1..+4/+5..+8), multiparious cows, week +1): 88.6^b lbs/day
Milk Production (4.0% fat basis) (Pre/Post Trial #2 (75/75/100 g/day in wk −3..−1/+1..+4/+5..+8), multiparious cows, week +2): 103 lbs/day
Milk Production (4.0% fat basis) (Pre/Post Trial #2 (75/75/100 g/day in wk −3..−1/+1..+4/+5..+8), multiparious cows, week +3): 106 lbs/day
Milk Production (4.0% fat basis) (Pre/Post Trial #2 (75/75/100 g/day in wk −3..−1/+1..+4/+5..+8), multiparious cows, week +4): 105 lbs/day
Milk Production (4.0% fat basis) (Pre/Post Trial #2 (75/75/100 g/day in wk −3..−1/+1..+4/+5..+8), multiparious cows, week +5): 111^b lbs/day
Milk Production (4.0% fat basis) (Pre/Post Trial #2 (75/75/100 g/day in wk −3..−1/+1..+4/+5..+8), multiparious cows, week +6): 104 lbs/day
Milk Production (4.0% fat basis) (Pre/Post Trial #2 (75/75/100 g/day in wk −3..−1/+1..+4/+5..+8), multiparious cows, week +7): 101 lbs/day
Milk Production (4.0% fat basis) (Pre/Post Trial #2 (75/75/100 g/day in wk −3..−1/+1..+4/+5..+8), multiparious cows, week +8): 94.4^a lbs/day
Milk Production (4.0% fat basis) (Pre/Post Trial #2 (75/75/100 g/day in wk −3..−1/+1..+4/+5..+8), multiparious cows, weeks +1 through +4): 100.6 lbs/day
Milk Production (4.0% fat basis) (Pre/Post Trial #2 (75/75/100 g/day in wk −3..−1/+1..+4/+5..+8), multiparious cows, weeks +1 through +8): 101 lbs/day
Milk Production (4.0% fat basis) (Pre/Post Trial #2 (75/75/100 g/day in wk −3..−1/+1..+4/+5..+8), multiparious cows, weeks +5 through +8): 102 lbs/day
greater production of 4% fat-corrected milk (Pre/Post Trial #2 (75/75/100 g/day) versus Control Trial #2, multiparious cows, week +5): 12.1%
greater rate of 4% fat-corrected milk production (Pre/Post Trial #2 (75/75/100 g/day) versus Pre-Partum Trial #2 (75/0/100 g/day), multiparious cows, week +1): 24.6%
